Experimental data as given in US6228382A, “Microbiocidal mixtures” (ETC C.V., priority 1996, dated 2001).

How the values were obtained:
[1] = Determination of the octanol/water partition coefficients (logPow) by HPLC, OECD guideline 117; assay type: physicochemical; conditions: rp 18 hplc; HPLC method, RP 18 column, OECD 117; read-out: logPow (octanol/water partition coefficient)
[2] = Determination of the relative leaching rate from house paint (watering with tap water, HPLC of methanol extracts); assay type: physicochemical
Description: First, 128 parts by weight (PW) of water were initially charged. 11 PW of a 10% strength by weight solution of Calgon N (sodium triphosphate) were subsequently stirred into the water. Thereafter, 2 PW of Tylose MHB 6000 (from Hoechst AG), 3 PW of Additol XW 330 (from Hoechst AG), 4 PW of Agitan 260 (from Munzing-Chemie, Heilbronn), 226 PW of titanium dioxide (for example from Kronos 2065), 375 PW of MOWILITH® DM 771 (about 50%) (from. HOECHST), 84 PW of Omyacarb 5 (from Omya), 84 PW of Micro Mica W1, 38 PW of Micro Talc AT 1 and 20 PW of China Clay D were added and homogenized. 11 PW of white spirit, 8 PW of butyl diglycol acetate and 4 PW of MERGAL® K 9 N (Riedel de Haen) were stirred into the resulting mixture. The pH of the resulting house paint was 8.8.
The preservatives listed in Table 2 were homogeneously dispersed into the resulting house paint.
The resulting paint sample was in each case drawn out to a film of approximately 150 g/m^2 on paper, using a knife. The paint sample prepared in this manner was subsequently dried at a temperature of 30° C. for 72 hours.
Test samples having a diameter of 5.5 cm were punched out from the paint sample. To simulate leaching by rainwater, these paint-coated test samples were watered with tap water (46.7 1/day/m^2 of paint). Test samples were taken in each case after 24 hours and air-dried for 72 hours.
To determine the microbicide concentration, in each case one specimen was extracted in methanol. The methanol extracts were analysed by HPLC. […]
column: RP-phenyl (Hypersil 5 μ) mobile phase: gradient water/acetonitrile
UV-Detector: 220 nm and 200 nm
Since in each analysis, the substances listed in Table 3 were measured as the area under the HPLC signal, it is possible to relate the leaching rates directly to the known active compounds OITZ and Mctt.

## CCCCCCCCCCn1sccc1=O [DITZ, 2-n-decyl-isothiazolin-3-one]
[1]
  chromatographic logP: 4.14

## CSc1nc(NC2CC2)nc(NC(C)(C)C)n1 [Mctt, 2-methylthio-4-cyclopropylamino-6-t-butylamino-1,3,5-triazine]
[2]; 0 h watering
  HPLC area: 955.2 arbitrary units
  HPLC relative area: 1
[2]; 24 h watering
  HPLC area: 787.1 arbitrary units
  HPLC relative area: 0.824
[2]; 48 h watering
  HPLC area: 800.2 arbitrary units
  HPLC relative area: 0.837
[2]; 72 h watering
  HPLC area: 677.6 arbitrary units
  HPLC relative area: 0.708
[2]; 96 h watering
  HPLC area: 547.4 arbitrary units
  HPLC relative area: 0.572

## CCCCCCCCCn1sccc1=O [NITZ, 2-n-nonylisothiazolin-3-one]
[1]
  chromatographic logP: 3.51

## CCCCCCCCn1sccc1=O [OITZ, 2-n-octylisothiazolin-3-one]
[1]
  chromatographic logP: 2.89

## CCCCCCCCCCCn1sccc1=O [compound 11, 2-n-undecylisothiazolin-3-one]
[1]
  chromatographic logP: 4.76

## CCCCCCCCCCCCn1sccc1=O [dodecyl-ITZ, 2-n-dodecylisothiazolin-3-one]
[1]
  chromatographic logP: 5.36
